Laboratory results published in patent publication US6780885B1, “Formulations and methods for administration of pharmacologically or biologically active compounds” (IDEXX Laboratories, Inc., priority 2000, dated 2004).

Experiments:
roundworms (Ascaridia) = assay: ivermectin formulation in the drinking water of turkeys, roundworm infestation; format: in vivo; conditions: in three days
Description: (§1) The 2% ivermectin solution is diluted 20-fold to 0.1% in water. From the 0.1%, 3.4 ml is dissolved in 5 liters (QS) of water. The dose to be administered in order to obtain effective treatment of various parasites depends on the size of the fowl to be treated (i.e., their drinking capacity). A 4.5 kg turkey will typically drink 600-1000 ml of water every 24 hours. This corresponds to a dose of 100-150 μgm/kg/day. […] The effective dose to administer to any other type of animal to treat a particular type of parasite can be easily determined by simply varying the dosage until arriving at an effective dose.
A non-aqueous, stable formulation of ivermectin was prepared and diluted into the drinking water of market male turkeys as described above. […] The birds were treated at levels of 10, 50, 100, 200, 250, 500, 1200, and 1400 mg/kg of body weight/day. […] The formulation was effective at completely eliminating any visible signs of roundworm infestation at levels down to […] body weight/day in three days.

cecal worms (Heterakis) = assay: ivermectin formulation in the drinking water of turkeys, cecal worms; format: in vivo; conditions: in three days
Description: as §1

Substance: ivermectin
- dose effective to completely eliminate roundworms (Ascaridia) (roundworms (Ascaridia); in drinking water): 200 mg ivermectin/kg body weight/day
- elimination of roundworms (roundworms (Ascaridia); formulation in drinking water): complete elimination
- dose effective to completely eliminate cecal worms (Heterakis) (cecal worms (Heterakis); in drinking water): 200 mg ivermectin/kg body weight/day
- elimination of cecal worms (cecal worms (Heterakis); formulation in drinking water): complete elimination
